From patent publication US10385108B2, “Peptide analogs of alpha-melanocyte stimulating hormone” (Genzyme Corporation, priority 2008, dated 2019)
Where a SMILES comes first, the peptide text is derived from it. [ ]: non-standard residue; d: D form. The star is where a group is joined. X1 = CCCCCCCCCCCCCCCCCC(=O)NCCCCCCN*; dBta = N[C@H](Cc1csc2ccccc12)C(=O)O; d3Pal = N[C@H](Cc1cccnc1)C(=O)O; d2Thi = N[C@H](Cc1cccs1)C(=O)O; NH(CH2)3Ph = c1ccc(CCCN*)cc1; dNle = CCCC[C@@H](N)C(=O)O

Biological target: MC1R (Homo sapiens, UniProt Q01726)
Assay: Competitive binding with 125I-NDP-MSH, HEK293 membrane preparations, MC1R;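 also: Read-out: receptor-bound radioligand retained by filtration and counted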
Details: for Ki: Ki MC1R, competition with 125I-NDP-MSH; for improvement of binding to MC1R by stearyl addition to the core tetrapeptide: relative to the unmodified tetrapeptide
Procedure: Binding analysis was done by Cerep laboratories (Paris, France) with coded samples.
The mixtures were filtered through 96-well GFC filters (Millipore, Billerica, Mass.), washed 3 times with binding buffer without BSA, dried and counted.
A competitive binding assay using a MCR panel including MCR 1, 3, 4, and 5 was performed.

Chain of MC1R (Q01726 whole entry): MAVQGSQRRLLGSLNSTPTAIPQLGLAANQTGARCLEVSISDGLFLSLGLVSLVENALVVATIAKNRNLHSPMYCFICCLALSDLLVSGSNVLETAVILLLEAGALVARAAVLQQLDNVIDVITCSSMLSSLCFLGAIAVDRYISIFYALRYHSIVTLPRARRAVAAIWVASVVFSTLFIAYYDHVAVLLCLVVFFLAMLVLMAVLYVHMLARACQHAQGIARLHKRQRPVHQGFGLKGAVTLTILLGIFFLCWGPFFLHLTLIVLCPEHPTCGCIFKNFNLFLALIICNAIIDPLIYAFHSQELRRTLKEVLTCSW

Compound	Ki [nM]	improvement of binding to MC1R by stearyl addition to the core tetrapeptide [fold]	affinity for MC1R compared with parent peptide (in words)
CSCC[C@@H](NC(=O)[C@@H](CCC(=O)O)NC(=O)[C@@H](Cc1c[nH]cn1)NC(=O)[C@@H](Cc1ccccc1)NC(=O)[C@@H](CCCNC(=N)N)NC(=O)[C@@H](Cc1c[nH]c2ccc(O)cc12)NC(=O)CNC(=O)[C@@H](CCCCN)NC(=O)[C@H]1CCCN1C(=O)[C@H](NC(C)=O)C(C)C)C(=O)N[C@H](CO)C(=O)N[C@H](Cc1ccc(O)cc1)C(=O)N[C@H](CO)C(N)=O [compound 860, vpkG(5-hydroxy-D-Trp)rfhemsys]	96	–	–
COc1ccc2[nH]cc(C[C@@H](NC(=O)CNC(=O)[C@@H](CCCCN)NC(=O)[C@H]3CCCN3C(=O)[C@H](NC(C)=O)C(C)C)C(=O)N[C@H](CCCNC(=N)N)C(=O)N[C@H](Cc3ccccc3)C(=O)N[C@H](Cc3c[nH]cn3)C(=O)N[C@H](CCC(=O)O)C(=O)N[C@H](CCSC)C(=O)N[C@H](CO)C(=O)N[C@H](Cc3ccc(O)cc3)C(=O)N[C@H](CO)C(N)=O)c2c1 [compound 861, vpkG(5-methoxy-D-Trp)rfhemsys]	75	–	–
CCCCCCCCCCCCCCCCCC(=O)NCCCCCCNC(=O)[C@@H](Cc1c[nH]cn1)NC(=O)[C@H](Cc1ccccc1)NC(=O)[C@@H](CCCNC(=N)N)NC(=O)[C@@H](Cc1c[nH]c2ccccc12)NC(C)=O [compound 882, wrFh] (Ac-[dW][dR]F[dH]-X1)	–	> 250	–
CSCC[C@@H](NC(=O)[C@@H](CCC(=O)O)NC(=O)[C@@H](Cc1c[nH]cn1)NC(=O)[C@@H](Cc1ccc([N+](=O)[O-])cc1)NC(=O)[C@@H](CCCNC(=N)N)NC(=O)[C@@H](Cc1c[nH]c2ccccc12)NC(=O)CNC(=O)[C@@H](CCCCN)NC(=O)[C@H]1CCCN1C(=O)[C@H](NC(C)=O)C(C)C)C(=O)N[C@H](CO)C(=O)N[C@H](Cc1ccc(O)cc1)C(=O)N[C@H](CO)C(N)=O [compound 871, vpkGwr(4-Nitro-D-Phe)hemsys]	324	–	–
CSCC[C@@H](NC(=O)[C@@H](C)NC(=O)[C@@H](Cc1c[nH]cn1)NC(=O)[C@@H](Cc1ccccc1)NC(=O)[C@@H](CCCNC(=N)N)NC(=O)[C@@H](Cc1c[nH]c2ccccc12)NC(=O)CNC(=O)[C@@H](CCCCN)NC(=O)[C@H]1CCCN1C(=O)[C@H](NC(C)=O)C(C)C)C(=O)N[C@H](CO)C(=O)N[C@H](Cc1ccc(O)cc1)C(=O)N[C@H](CO)C(N)=O [compound 808, vpkGwrfhamsys] (Ac-[dV][dP][dK]G[dW][dR][dF][dH][dA][dM][dS][dY][dS]-NH2)	2.5	–	–
CSCC[C@@H](NC(=O)[C@@H](CCC(=O)O)NC(=O)[C@@H](Cc1c[nH]c2ccccc12)NC(=O)[C@@H](Cc1ccccc1)NC(=O)[C@@H](CCCNC(=N)N)NC(=O)[C@@H](Cc1c[nH]c2ccccc12)NC(=O)CNC(=O)[C@@H](CCCCN)NC(=O)[C@H]1CCCN1C(=O)[C@H](NC(C)=O)C(C)C)C(=O)N[C@H](CO)C(=O)N[C@H](Cc1ccc(O)cc1)C(=O)N[C@H](CO)C(N)=O [compound 873, vpkGwrfwemsys] (Ac-[dV][dP][dK]G[dW][dR][dF][dW][dE][dM][dS][dY][dS]-NH2)	1900	–	–
CSCC[C@@H](NC(=O)[C@@H](CCC(=O)O)NC(=O)[C@@H](Cc1c[nH]cn1)NC(=O)[C@@H](Cc1cccs1)NC(=O)[C@@H](CCCNC(=N)N)NC(=O)[C@@H](Cc1c[nH]c2ccccc12)NC(=O)CNC(=O)[C@@H](CCCCN)NC(=O)[C@H]1CCCN1C(=O)[C@H](NC(C)=O)C(C)C)C(=O)N[C@H](CO)C(=O)N[C@H](Cc1ccc(O)cc1)C(=O)N[C@H](CO)C(N)=O [compound 868, vpkGwr(2-thienyl-D-Alanine)hemsys] (Ac-[dV][dP][dK]G[dW][dR][d2Thi][dH][dE][dM][dS][dY][dS]-NH2)	5.4	–	–
CSCC[C@@H](NC(=O)[C@@H](CCC(=O)O)NC(=O)[C@@H](Cc1c[nH]cn1)NC(=O)[C@@H](Cc1ccccc1)NC(=O)[C@@H](CCCNC(=N)N)NC(=O)[C@@H](Cc1c[nH]c2ccccc12)NC(=O)CNC(=O)[C@@H](CCCN)NC(=O)[C@H]1CCCN1C(=O)[C@H](NC(C)=O)C(C)C)C(=O)N[C@H](CO)C(=O)N[C@H](Cc1ccc(O)cc1)C(=O)N[C@H](CO)C(N)=O [compound 857, vp(D-Ornithine)Gwrfhemsys]	3	–	–
CC(C)[C@@H](N)C(=O)N1CCC[C@@H]1C(=O)N[C@H](CCCCN)C(=O)NCC(=O)N[C@H](Cc1c[nH]c2ccccc12)C(=O)N[C@H](CCCNC(=N)N)C(=O)N[C@H](Cc1ccccc1)C(=O)N[C@H](Cc1c[nH]cn1)C(=O)O [847int, vpkGwrfh] (H-[dV][dP][dK]G[dW][dR][dF][dH]-OH)	150	–	–
CC(=O)N[C@@H](C(=O)N1CCC[C@@H]1C(=O)N[C@H](CCCCN)C(=O)NCC(=O)N[C@H](Cc1c[nH]c2ccccc12)C(=O)N[C@H](CCCNC(=N)N)C(=O)N[C@H](Cc1ccccc1)C(=O)N[C@H](Cc1c[nH]cn1)C(=O)N[C@H](CCC(=O)O)C(=O)N[C@H](CCCCN)C(=O)N[C@H](CO)C(=O)N[C@H](Cc1ccc(O)cc1)C(=O)N[C@H](CO)C(N)=O)C(C)C [compound 879, vpkGwrfheksys] (Ac-[dV][dP][dK]G[dW][dR][dF][dH][dE][dK][dS][dY][dS]-NH2)	832	–	–
CSCC[C@@](C)(NC(=O)[C@@H](CCC(=O)O)NC(=O)[C@@H](Cc1c[nH]cn1)NC(=O)[C@@H](Cc1ccccc1)NC(=O)[C@@H](CCCNC(=N)N)NC(=O)[C@@H](Cc1c[nH]c2ccccc12)NC(=O)CNC(=O)[C@@H](CCCCN)NC(=O)[C@H]1CCCN1C(=O)[C@H](NC(C)=O)C(C)C)C(=O)N[C@H](CO)C(=O)N[C@H](Cc1ccc(O)cc1)C(=O)N[C@H](CO)C(N)=O [compound 877, vpkGwrfhe(α-methyl-D-Met)sys]	282	–	–
CSCC[C@@H](NC(=O)[C@@H](CCC(=O)O)NC(=O)[C@@H](Cc1c[nH]cn1)NC(=O)[C@@H](Cc1ccccc1)NC(=O)[C@@H](CCCNC(=N)N)NC(=O)[C@@H](Cc1csc2ccccc12)NC(=O)CNC(=O)[C@@H](CCCCN)NC(=O)[C@H]1CCCN1C(=O)[C@H](NC(C)=O)C(C)C)C(=O)N[C@H](CO)C(=O)N[C@H](Cc1ccc(O)cc1)C(=O)N[C@H](CO)C(N)=O [compound 859, vpkG(3-benzothienyl-D-Alanine)rfhemsys] (Ac-[dV][dP][dK]G[dBta][dR][dF][dH][dE][dM][dS][dY][dS]-NH2)	206	–	–
CCCC[C@@H](NC(=O)[C@H]1CCCN1C(=O)[C@H](NC(C)=O)C(C)C)C(=O)NCC(=O)N[C@H](Cc1c[nH]c2ccccc12)C(=O)N[C@H](CCCNC(=N)N)C(=O)N[C@H](Cc1ccccc1)C(=O)N[C@H](Cc1c[nH]cn1)C(=O)N[C@H](CCC(=O)O)C(=O)N[C@H](CCSC)C(=O)N[C@H](CO)C(=O)N[C@H](Cc1ccc(O)cc1)C(=O)N[C@H](CO)C(N)=O [compound 858, vp(D-Norleucine)Gwrfhemsys] (Ac-[dV][dP][dNle]G[dW][dR][dF][dH][dE][dM][dS][dY][dS]-NH2)	18	–	–
CC(C)[C@@H](N)C(=O)N1CCC[C@@H]1C(=O)N[C@H](CCCCN)C(=O)NCC(=O)N[C@H](Cc1c[nH]c2ccccc12)C(=O)N[C@H](CCCNC(=N)N)C(=O)N[C@H](Cc1ccccc1)C(=O)N[C@H](Cc1c[nH]cn1)C(=O)NCCCc1ccccc1 [compound 847, vpkGwrfh] (H-[dV][dP][dK]G[dW][dR][dF][dH]-{NH(CH2)3Ph})	104 ± 72	–	no increase in the affinity
CSCC[C@@H](NC(=O)[C@@H](CC(=O)O)NC(=O)[C@@H](Cc1c[nH]cn1)NC(=O)[C@@H](Cc1ccccc1)NC(=O)[C@@H](CCCNC(=N)N)NC(=O)[C@@H](Cc1c[nH]c2ccccc12)NC(=O)CNC(=O)[C@@H](CCCCN)NC(=O)[C@H]1CCCN1C(=O)[C@H](NC(C)=O)C(C)C)C(=O)N[C@H](CO)C(=O)N[C@H](Cc1ccc(O)cc1)C(=O)N[C@H](CO)C(N)=O [compound 875, vpkGwrfhdmsys] (Ac-[dV][dP][dK]G[dW][dR][dF][dH][dD][dM][dS][dY][dS]-NH2)	400	–	–
CSCC[C@@H](NC(=O)[C@@H](CCC(=O)O)NC(=O)[C@@H](Cc1c[nH]cn1)NC(=O)[C@@H](Cc1ccccc1)NC(=O)[C@@H](CCCNC(=N)N)NC(=O)[C@@H](Cc1ccccc1)NC(=O)CNC(=O)[C@@H](CCCCN)NC(=O)[C@H]1CCCN1C(=O)[C@H](NC(C)=O)C(C)C)C(=O)N[C@H](CO)C(=O)N[C@H](Cc1ccc(O)cc1)C(=O)N[C@H](CO)C(N)=O [862-b, vpkGfrfhemsys] (Ac-[dV][dP][dK]G[dF][dR][dF][dH][dE][dM][dS][dY][dS]-NH2)	128	–	–
CCCCCCCCCCCCCCCCCC(=O)N[C@@H](Cc1c[nH]cn1)C(=O)N[C@H](Cc1ccccc1)C(=O)N[C@@H](CCCNC(=N)N)C(=O)N[C@@H](Cc1c[nH]c2ccccc12)C(N)=O [compound 820, (Stearyl) HfRW]	1.3	80	–
CSCC[C@@H](NC(=O)[C@@H](CCC(=O)O)NC(=O)[C@@H](Cc1c[nH]cn1)NC(=O)[C@@H](Cc1cccnc1)NC(=O)[C@@H](CCCNC(=N)N)NC(=O)[C@@H](Cc1c[nH]c2ccccc12)NC(=O)CNC(=O)[C@@H](CCCCN)NC(=O)[C@H]1CCCN1C(=O)[C@H](NC(C)=O)C(C)C)C(=O)N[C@H](CO)C(=O)N[C@H](Cc1ccc(O)cc1)C(=O)N[C@H](CO)C(N)=O [compound 867, vpkGwr(3-pyridyl-D-Alanine)hemsys] (Ac-[dV][dP][dK]G[dW][dR][d3Pal][dH][dE][dM][dS][dY][dS]-NH2)	480	–	–
CSCC[C@@H](NC(=O)[C@@H](CCC(=O)O)NC(=O)[C@@H](Cc1c[nH]cn1)NC(=O)[C@@H](Cc1ccccc1)NC(=O)[C@@H](Cc1c[nH]cn1)NC(=O)[C@@H](Cc1c[nH]c2ccccc12)NC(=O)CNC(=O)[C@@H](CCCCN)NC(=O)[C@H]1CCCN1C(=O)[C@H](NC(C)=O)C(C)C)C(=O)N[C@H](CO)C(=O)N[C@H](Cc1ccc(O)cc1)C(=O)N[C@H](CO)C(N)=O [compound 865, vpkGwhfhemsys] (Ac-[dV][dP][dK]G[dW][dH][dF][dH][dE][dM][dS][dY][dS]-NH2)	2300	–	–
